Results on two substances are retold here after article PMC3857288, “Characterization of Amylolysin, a Novel Lantibiotic from Bacillus amyloliquefaciens GA1” (PLoS ONE, 2013).

Read-outs that look alike come from different tables or passages of the source.

For data set [1] the following is noted: above pH 6; cited from earlier work. The source says: (§1) The majority of the bacteriocins described to date are from lactic bacteria with nisin, used commercially in many countries as preservative in food products, being the best characterized compound. […] In regards to their high level of protease production, Bacillus sp. has been considered as interesting alternative source for antimicrobial peptides with increased protease tolerance. In our laboratory, B. amyloliquefaciens ...

The test system of a further data set is Bacillus cereus RFB125. The data set is described as follows: MIC, microdilution (CLSI). The data set is classed as cell-based. The note with it: clinical isolate; LB medium, 37 °C, 24-well plates, seeded at OD600 0.1, 24 h, amylolysin 0.1-2.8 µM, OD600 read-out, triplicate. How it is done:
(§2) Minimal inhibitory concentration (MIC) was determined for an array of bacterial and yeast strains by a microdilution method following the Clinical and Laboratory Standard Institute (CLSI) recommended procedure. Briefly, the different indicator strains were aerobically grown in 24-wells culture plates in the presence of purified amylolysin at concentration ranging from 0.1 to 2.8 µM in the appropriate medium and temperature conditions as stipulated in table 1. Each well was seeded at an OD600 of 0.1. After 24 h of incubation, cell growth was estimated based on OD600 measurements. The MIC values were defined as the lowest amylolysin concentration that is able to inhibit cell growth. Each experiment was performed in triplicate.
On the technique in general: Broth dilution looks for growth in wells or tubes with falling amounts of substance.

Data set [2] concerns Bacillus megaterium RFB124. The data set can be described thus: MIC, microdilution (CLSI). The class given is cell-based. The note with it: LB medium, 37 °C, 24-well plates, seeded at OD600 0.1, 24 h, amylolysin 0.1-2.8 µM, OD600 read-out, triplicate. Here is the method: as §2
In data set [3] the test system is Bacillus subtilis ATCC 6633. The data set can be described thus: MIC, microdilution (CLSI). The class given is cell-based. Conditions: LB medium, 37 °C, 24-well plates, seeded at OD600 0.1, 24 h, amylolysin 0.1-2.8 µM, OD600 read-out, triplicate. Here is the method:
as §2

Data set [4] deals with Enterococcus faecalis ATCC 29212. The data set can be described thus: MIC, microdilution (CLSI). The data set is classed as cell-based. Conditions: BH medium, 37 °C, 24-well plates, seeded at OD600 0.1, 24 h, amylolysin 0.1-2.8 µM, OD600 read-out, triplicate. Here is the method: as §2
Data set [5] concerns Enterococcus faecalis RFB129. The data set is described as follows: MIC, microdilution (CLSI). The data set is classed as cell-based. The note with it: clinical isolate; BH medium, 37 °C, 24-well plates, seeded at OD600 0.1, 24 h, amylolysin 0.1-2.8 µM, OD600 read-out, triplicate. Here is the method: as §2
Data set [6] relates to Enterococcus faecium RFB128. The data set can be described thus: MIC, microdilution (CLSI). The class given is cell-based. Conditions: lab stock; BH medium, 37 °C, 24-well plates, seeded at OD600 0.1, 24 h, amylolysin 0.1-2.8 µM, OD600 read-out, triplicate. Here is the method:
as §2

Data set [7] concerns Lactobacillus plantarum RFB138. The data set is described as follows: MIC, microdilution (CLSI). Conditions: lab stock; MRS medium, 27 °C, 24-well plates, seeded at OD600 0.1, 24 h, amylolysin 0.1-2.8 µM, OD600 read-out, triplicate. The data set is classed as cell-based. Here is the method: as §2
Data set [8] has as its system Listeria innocua ATCC33090. The data set is described as follows: MIC, microdilution (CLSI). The data set is classed as cell-based. The note with it: BH medium, 37 °C, 24-well plates, seeded at OD600 0.1, 24 h, amylolysin 0.1-2.8 µM, OD600 read-out, triplicate. How it is done:
as §2

The test system of the next data set is Listeria innocua RFB159. The data set can be described thus: MIC, microdilution (CLSI). The class given is cell-based. Conditions: clinical isolate; BH medium, 37 °C, 24-well plates, seeded at OD600 0.1, 24 h, amylolysin 0.1-2.8 µM, OD600 read-out, triplicate. How it is done:
as §2

The next data set concerns Listeria ivanovii RFB160. The data set is described as follows: MIC, microdilution (CLSI). The data set is classed as cell-based. Conditions: BH medium, 37 °C, 24-well plates, seeded at OD600 0.1, 24 h, amylolysin 0.1-2.8 µM, OD600 read-out, triplicate. Here is the method: as §2
Data set [9] deals with Listeria monocytogenes LM2234. The data set is described as follows: MIC, microdilution (CLSI). The data set is classed as cell-based. The note with it: clinical isolate; BH medium, 37 °C, 24-well plates, seeded at OD600 0.1, 24 h, amylolysin 0.1-2.8 µM, OD600 read-out, triplicate. How it is done:
as §2

For data set [10], the system named is Listeria monocytogenes LMG 21263. The data set is described as follows: MIC, microdilution (CLSI). The note with it: BH medium, 37 °C, 24-well plates, seeded at OD600 0.1, 24 h, amylolysin 0.1-2.8 µM, OD600 read-out, triplicate. The data set is classed as cell-based. How it is done: as §2
Data set [11] deals with Listeria monocytogenes LMG 23905. The data set can be described thus: MIC, microdilution (CLSI). The data set is classed as cell-based. The note with it: BH medium, 37 °C, 24-well plates, seeded at OD600 0.1, 24 h, amylolysin 0.1-2.8 µM, OD600 read-out, triplicate. How it is done: as §2
The test system of data set [12] is Micrococcus luteus ATCC 9341. The data set can be described thus: MIC, microdilution (CLSI). The class given is cell-based. The note with it: BH medium, 37 °C, 24-well plates, seeded at OD600 0.1, 24 h, amylolysin 0.1-2.8 µM, OD600 read-out, triplicate. Here is the method: as §2
In data set [13] the test system is Staphylococcus aureus ATCC 25923. The data set is described as follows: MIC, microdilution (CLSI). Conditions: BH medium, 37 °C, 24-well plates, seeded at OD600 0.1, 24 h, amylolysin 0.1-2.8 µM, OD600 read-out, triplicate. The data set is classed as cell-based. How it is done: as §2
For data set [14], the system named is Staphylococcus aureus ATCC 43300 (methicillin resistant). The data set is described as follows: MIC, microdilution (CLSI). The data set is classed as cell-based. The note with it: methicillin resistant strain; BH medium, 37 °C, 24-well plates, seeded at OD600 0.1, 24 h, amylolysin 0.1-2.8 µM, OD600 read-out, triplicate. How it is done:
as §2

Data set [15] has as its system Staphylococcus aureus RFB127. The data set is described as follows: MIC, microdilution (CLSI). The note with it: lab stock; BH medium, 37 °C, 24-well plates, seeded at OD600 0.1, 24 h, amylolysin 0.1-2.8 µM, OD600 read-out, triplicate. The data set is classed as cell-based. How it is done:
as §2

In data set [16] the test system is Staphylococcus epidermis ATCC 1228. The data set is described as follows: MIC, microdilution (CLSI). Conditions: BH medium, 37 °C, 24-well plates, seeded at OD600 0.1, 24 h, amylolysin 0.1-2.8 µM, OD600 read-out, triplicate. The data set is classed as cell-based. Here is the method: as §2
In data set [17] the test system is Streptococcus agalactiae RFB141. The data set is described as follows: MIC, microdilution (CLSI). The data set is classed as cell-based. The note with it: clinical isolate; BH medium, 37 °C, 24-well plates, seeded at OD600 0.1, 24 h, amylolysin 0.1-2.8 µM, OD600 read-out, triplicate. Here is the method: as §2
The test system of a further data set is Weissella sp RFB139. The data set can be described thus: MIC, microdilution (CLSI). The data set is classed as cell-based. Conditions: lab stock; MRS medium, 27 °C, 24-well plates, seeded at OD600 0.1, 24 h, amylolysin 0.1-2.8 µM, OD600 read-out, triplicate. Here is the method:
as §2

For data set [18], the system named is L. monocytogenes (three clinical or food isolates). The data set is described as follows: MIC, microdilution (CLSI), summary for three isolates. The data set is classed as cell-based, Listeria monocytogenes. Conditions: summary value of the text for the three L. monocytogenes isolates tested; BH medium, 37 °C, 24 h, triplicate. How it is done: as §2
Data set [19] is classed as physicochemical. The note with it: agar diffusion, M. luteus ATCC 9341. Here is the method: To evaluate sensitivity to proteases, purified amylolysin samples were quantified by RP-HPLC after 24h of incubation at 37°C with proteinase K and pronase (10 µg/ml, Sigma-Aldrich). Heat stability was evaluated after incubation for 60 min at various temperatures (25, 55, 65, 75 and 100 °C) whereas pH sensitivity was evaluated after a 1h-incubation in 200 mM HCl/KCl buffer (pH 2-3), acetate buffer (pH 4-6) and Tris buffer (pH 7-9). After those treatments, the remaining amylolysin activity was determined using the agar diffusion assays as described elsewhere, using Micrococcus luteus ATCC 9341 as an indicator strain.
On the technique in general: Agar diffusion results depend on both activity and mobility in agar.

The nature of data set [20]: Direct interaction with [14C] lipid II, TLC migration. The data set is classed as binding. Conditions: [14C] lipid II 2.5 µM, amylolysin 0.2 µM, DMSO/1-octanol 60/40 v/v, 1 hour, room temperature, Molecular Imager FX. Here is the method: (§3) Radiolabelled UDP-MurNac-pentapeptide, thereafter [^14C] lipid II, was prepared in vitro using E. coli K12 purified membrane from UDP-GlcNac and UDP-MurNAc-L-Ala-D-Glu-meso-DAP-D-[^14C]Ala-D-[^14C]Ala and subsequently purified as previously described. Inhibition of glycosyl transferase reaction was performed as described elsewhere with some modifications. Briefly, [^14C] lipid II (2.5µM; 0.125µCi nmol^-1), amylolysin (0.2 µM), His-tag PBP1bγ from E. coli (15 nM) were incubated in 25mM Tris-HCl (pH7,5), 0,5 % decyl PEG, 10 mM MgCl2, 12% 1-octanol, 25 % DMSO for 1 hour at 30 °C. The reaction products were separated by thin layer chromatography (TLC) on silica plate (SilG, […], Macherey-Nagel, Duren, Germany) using a mixture of methanol/chloroform/ammoniac/water (88/48/10/1, v/v/v/v) as mobile phase. For interaction experiment, [^14C] lipid II (2.5 µM; 0.125µCinmol^-1) and amylolysin (0.2 µM) were incubated in DMSO/1-octanol mixture (60/40 v/v) for 1 hour at room temperature before being subjected to TCL using a butanol/acetic acid/pyridine/water mixture (15/3/12/10, v/v/v/v) as mobile phase. The radioactive compounds were detected and analyzed with a Molecular Imager FX system (Biorad Laboratories).

Data set [21] concerns His-tag PBP1bγ from E. coli. The data set is described as follows: Inhibition of the transglycosylation (glycosyl transferase) reaction, TLC of [14C] lipid II. The class given is biochemical. Conditions: [14C] lipid II 2.5 µM, amylolysin 0.2 µM, PBP1bγ 15 nM, 25 mM Tris-HCl pH 7.5, 0.5 % decyl PEG, 10 mM MgCl2, 12% 1-octanol, 25 % DMSO, 1 hour, 30 °C. Here is the method:
as §3

Another data set has as its system meat proteases. Conditions: cited from earlier work.
Source text: as §1

The term MIC denotes the lowest concentration found to suppress growth.

nisin: in [1], the solubility result is “low solubility above pH 6”.
As for amylolysin, the minimal inhibitory concentration (MIC) is listed as 0.2 µM with Bacillus cereus RFB125; 0.4 µM in data set [2]; 1.4 µM in [3]; 1.4 µM in [4]; 0.7 µM in data set [5]; 0.1 µM in data set [6]. Further, the minimum inhibitory concentration (MIC) is listed as above 2.8 µM in [7]; 0.7 µM in [8]; 0.7 µM in the data set with Listeria innocua RFB159; 0.8 µM with Listeria ivanovii RFB160; 0.4 µM in [9]; 0.5 µM in data set [10]. Moreover, the MIC in data set [11] is 0.4 µM; in data set [12] it was 0.7 µM; in [13] it was 2.8 µM; in data set [14], 0.4 µM; in [15], 1.4 µM; in data set [16], 2.8 µM. In addition, the MIC was 2.8 µM in data set [17], 2.8 µM in the data set on Weissella sp RFB139 and around 0.5 µM in data set [18]. The “reduction of biological activity” value in data set [19] (100 °C for 1 hour) was determined as 7%. The antimicrobial activity reduction in data set [19] (acidic condition, pH 2, 1 h) was 11%; in data set [19] (alkaline condition, pH 9, 1 h) it was 7%. The “direct amylolysin-lipid II interaction (delay of migration of the complex on TLC)” value in data set [20] is recorded as “direct interaction between the two partners”. For the same substance, the “inhibition of the transglycosylation reaction (lipid II polymerisation)” value in data set [21] was “Inhibition of the transglycosylation reaction”. Moreover, in the data set with meat proteases, the “sensitivity to meat proteases” value is “less sensitive to meat proteases than nisin”.
